# From PubChem BioAssay (NCI)
#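 In this assay, cells in 96-well plates receive the compound at five concentrations for 48 hours. Endpoints are linearly interpolated between the surrounding concentrations. TGI is the concentration that stops growth completely.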
# Assays:
# Assay in all cases: growth of human tumour cells (NCI), 48 h
# K-562 leukemia = tested on: K-562 leukemia
# M14 melanoma = tested on: M14 melanoma
# HOP-62 NSCLC = tested on: HOP-62 NSCLC
# MOLT-4 leukemia = tested on: MOLT-4 leukemia
# ACHN renal = tested on: ACHN renal
# SK-MEL-2 melanoma = tested on: SK-MEL-2 melanoma
# SR leukemia = tested on: SR leukemia
# MALME-3M melanoma = tested on: MALME-3M melanoma
# UACC-62 melanoma = tested on: UACC-62 melanoma
# KM12 colon = tested on: KM12 colon
# HCC-2998 colon = tested on: HCC-2998 colon
# NCI-H23 lung = tested on: NCI-H23 lung
# SNB-19 CNS = tested on: SNB-19 CNS
# SF-295 CNS = tested on: SF-295 CNS
# MDA-MB-435 = tested on: MDA-MB-435
# DU-145 prostate = tested on: DU-145 prostate
# HS 578T breast = tested on: HS 578T breast
Compound,TGI (K-562 leukemia),TGI (M14 melanoma),TGI (HOP-62 NSCLC),TGI (MOLT-4 leukemia),TGI (ACHN renal),TGI (SK-MEL-2 melanoma),TGI (SR leukemia),TGI (MALME-3M melanoma),TGI (UACC-62 melanoma),TGI (KM12 colon),TGI (HCC-2998 colon),TGI (NCI-H23 lung),TGI (SNB-19 CNS),TGI (SF-295 CNS),TGI (MDA-MB-435),TGI (DU-145 prostate),TGI (HS 578T breast)
COc1ccc([C@H]2[C@@H]3CCc4ccccc4C3=NN2C(N)=S)cc1OC,66.9 µM,> 100 µM,> 100 µM,> 100 µM,> 100 µM,> 100 µM,72.4 µM,> 100 µM,> 100 µM,> 100 µM,> 100 µM,> 100 µM,> 100 µM,–,–,–,–
CC(=O)Nc1ccc(S(=O)(=O)N/N=C(\C)CN2C(=O)c3ccccc3C2=O)cc1,> 100 µM,> 100 µM,> 100 µM,> 100 µM,> 100 µM,> 100 µM,> 100 µM,> 100 µM,> 100 µM,> 100 µM,> 100 µM,> 100 µM,> 100 µM,> 100 µM,–,–,–
Nc1nc(Cl)cc(NCC2(CO)CC=CC2)n1,> 100 µM,–,> 100 µM,> 100 µM,> 100 µM,> 100 µM,–,> 100 µM,> 100 µM,> 100 µM,> 100 µM,–,> 100 µM,> 100 µM,> 100 µM,> 100 µM,> 100 µM
CC(=O)NC(CCCCN(Cc1ccccc1)C(=O)N(C)N=O)C(=O)NCc1ccccc1 (stereo unspecified),> 100 µM,> 100 µM,> 100 µM,> 100 µM,> 100 µM,> 100 µM,–,> 100 µM,> 100 µM,> 100 µM,> 100 µM,> 100 µM,> 100 µM,> 100 µM,–,–,–
O=c1[nH]nc(Cc2ccc(Cl)cc2)n1CCO,> 100 µM,> 100 µM,–,> 100 µM,> 100 µM,> 100 µM,–,> 100 µM,> 100 µM,> 100 µM,> 100 µM,> 100 µM,> 100 µM,> 100 µM,> 100 µM,> 100 µM,> 100 µM
COc1ccc(C2S/C(=C\c3ccc([N+](=O)[O-])cc3)C(=O)N2NC(=O)Cc2ccccc2)cc1 (stereo unspecified),> 100 µM,> 100 µM,> 100 µM,> 100 µM,> 100 µM,> 100 µM,> 100 µM,> 100 µM,> 100 µM,> 100 µM,–,> 100 µM,–,> 100 µM,–,–,–
COc1ccc(/C=N/NC(=O)CSc2nc(-c3ccccc3)c(-c3ccccc3)[nH]2)cc1OC,–,33.8 µM,72.5 µM,37.6 µM,77.2 µM,39.1 µM,–,35.8 µM,40.5 µM,34 µM,–,76.7 µM,> 100 µM,55.9 µM,–,–,–
COc1cc2c(cc1OC)C(Cc1cc(Br)c(OC)c(OC)c1)=[N+](C)CC2,> 100 µM,> 100 µM,> 100 µM,–,> 100 µM,> 100 µM,–,> 100 µM,> 100 µM,> 100 µM,> 100 µM,> 100 µM,> 100 µM,> 100 µM,–,–,–
CC1(C)OC2C(O1)[C@H]1OC(C(Cl)(Cl)Cl)=N[C@H]1C(I)[C@H]2N1C(=O)c2ccccc2C1=O (stereo partly specified),> 100 µM,> 100 µM,> 100 µM,58.3 µM,> 100 µM,–,65.4 µM,–,> 100 µM,> 100 µM,–,> 100 µM,> 100 µM,> 100 µM,–,–,–
CN(C)CCSC(=Nc1ccccc1)n1cccc1,> 100 µM,> 100 µM,> 100 µM,> 100 µM,> 100 µM,> 100 µM,> 100 µM,> 100 µM,> 100 µM,> 100 µM,–,> 100 µM,> 100 µM,> 100 µM,–,–,–
O=C(c1nc2ccc(Cl)cc2[nH]c1=O)C(O)c1ccco1 (stereo unspecified),> 100 µM,> 100 µM,–,> 100 µM,> 100 µM,> 100 µM,–,> 100 µM,> 100 µM,–,> 100 µM,> 100 µM,> 100 µM,> 100 µM,–,–,–
CC(C)C1COC(C(C)(C)C2=N[C@@H](C(C)C)CO2)=N1 (stereo partly specified),> 100 µM,> 100 µM,> 100 µM,> 100 µM,> 100 µM,> 100 µM,> 100 µM,> 100 µM,> 100 µM,> 100 µM,> 100 µM,> 100 µM,> 100 µM,> 100 µM,–,–,–
COc1ccc(OC)c2c1ccc1c(C)c3ccccc3c(C)c12,> 100 µM,> 100 µM,> 100 µM,> 100 µM,> 100 µM,> 100 µM,> 100 µM,> 100 µM,> 100 µM,–,45.8 µM,> 100 µM,> 100 µM,–,> 100 µM,> 100 µM,–
Cc1ccc([N+](=O)[O-])cc1NC(=O)/C(CC(=O)c1sc(C(N)=S)nc1C)=N\N,> 100 µM,> 100 µM,> 100 µM,> 100 µM,> 100 µM,> 100 µM,> 100 µM,> 100 µM,> 100 µM,> 100 µM,> 100 µM,83.8 µM,> 100 µM,> 100 µM,–,–,–
FC(F)(F)c1nc2c(ccc3[nH]c4c(-c5ccccc5)nccc4c32)[nH]1,> 100 µM,> 100 µM,> 100 µM,> 100 µM,> 100 µM,> 100 µM,40.7 µM,> 100 µM,> 100 µM,> 100 µM,> 100 µM,> 100 µM,> 100 µM,> 100 µM,–,–,–
CC1=C(c2ccccc2)CON(c2ccccc2)C1,> 100 µM,> 100 µM,> 100 µM,> 100 µM,> 100 µM,> 100 µM,> 100 µM,> 100 µM,> 100 µM,> 100 µM,> 100 µM,> 100 µM,> 100 µM,> 100 µM,–,–,–

Compound,TGI (K-562 leukemia),TGI (M14 melanoma),TGI (HOP-62 NSCLC),TGI (MOLT-4 leukemia),TGI (ACHN renal),TGI (SK-MEL-2 melanoma),TGI (SR leukemia),TGI (MALME-3M melanoma),TGI (UACC-62 melanoma),TGI (KM12 colon),TGI (HCC-2998 colon),TGI (NCI-H23 lung),TGI (SNB-19 CNS),TGI (SF-295 CNS),TGI (MDA-MB-435),TGI (DU-145 prostate),TGI (HS 578T breast)
COc1cc(CO)cc2c1[nH]c1ccccc12,> 25 µM,> 25 µM,> 25 µM,> 25 µM,> 25 µM,> 25 µM,> 25 µM,> 25 µM,> 25 µM,> 25 µM,> 25 µM,–,> 25 µM,–,–,–,–
CCOc1cc2cnc3c4cc(OC)c(OC)cc4ccc3c2cc1OC,> 100 µM,> 100 µM,> 100 µM,> 100 µM,> 100 µM,> 100 µM,> 100 µM,> 100 µM,> 100 µM,> 100 µM,> 100 µM,> 100 µM,> 100 µM,> 100 µM,–,–,–
O=C(Cc1ccccc1)N/N=C(/c1nc2ccc([N+](=O)[O-])cc2[nH]c1=O)C(O)c1ccco1 (stereo unspecified),> 100 µM,> 100 µM,> 100 µM,> 100 µM,> 100 µM,> 100 µM,> 100 µM,> 100 µM,> 100 µM,> 100 µM,> 100 µM,> 100 µM,–,> 100 µM,–,–,–
COC(=O)[C@H]1C2CC[C@@H]3C45C[C@@H](c6ccoc6)O[C@@H]4O[C@@H](O2)C31CCC5C (stereo partly specified),> 100 µM,> 100 µM,> 100 µM,> 100 µM,> 100 µM,> 100 µM,–,> 100 µM,> 100 µM,> 100 µM,> 100 µM,> 100 µM,> 100 µM,> 100 µM,–,–,–
O=[N+]([O-])c1ccc2nc(/C=C(\O)c3ccccc3)c(NC34CC5CC(CC(C5)C3)C4)nc2c1,–,> 10 µM,> 10 µM,–,> 10 µM,> 10 µM,–,> 10 µM,–,> 10 µM,> 10 µM,> 10 µM,–,> 10 µM,> 10 µM,> 10 µM,> 10 µM
N#CC(C(=S)Nc1ccccc1)=C1Nc2ccccc2N1,> 10 µM,> 10 µM,> 10 µM,> 10 µM,> 10 µM,> 10 µM,> 10 µM,> 10 µM,> 10 µM,> 10 µM,> 10 µM,> 10 µM,> 10 µM,–,–,–,–
CNc1cc(Cl)ccc1C(=O)N1CCC[C@H]1CO,–,> 100 µM,> 100 µM,> 100 µM,> 100 µM,> 100 µM,–,> 100 µM,> 100 µM,> 100 µM,–,> 100 µM,> 100 µM,> 100 µM,> 100 µM,> 100 µM,> 100 µM
CC(=O)OCc1ncccc1C(OC(C)=O)OC(C)=O,> 100 µM,> 100 µM,> 100 µM,> 100 µM,> 100 µM,> 100 µM,> 100 µM,> 100 µM,> 100 µM,> 100 µM,–,> 100 µM,> 100 µM,> 100 µM,–,–,–
O=C(c1nc2ccc(Cl)cc2[nH]c1=O)C(O)c1cccc([N+](=O)[O-])c1 (stereo unspecified),> 100 µM,> 100 µM,> 100 µM,> 100 µM,> 100 µM,> 100 µM,> 100 µM,> 100 µM,> 100 µM,> 100 µM,> 100 µM,> 100 µM,> 100 µM,> 100 µM,–,–,–
O=C1C2CCCCC2C(=O)N1n1c(Cc2ccccc2)n[nH]c1=O (stereo unspecified),> 100 µM,> 100 µM,> 100 µM,> 100 µM,> 100 µM,> 100 µM,> 100 µM,> 100 µM,> 100 µM,> 100 µM,> 100 µM,> 100 µM,> 100 µM,> 100 µM,> 100 µM,–,> 100 µM
C[C@@H]1C[C@@H]2C(=O)N(c3ccccc3)C(=O)[C@@H]2c2[nH]c3ccc(Br)cc3c21,> 100 µM,> 100 µM,47.6 µM,> 100 µM,> 100 µM,> 100 µM,> 100 µM,> 100 µM,> 100 µM,75.4 µM,> 100 µM,> 100 µM,> 100 µM,90.9 µM,–,–,–
CCOC(=O)/C(=C/c1ccccc1)N(CC)CC,> 100 µM,> 100 µM,> 100 µM,> 100 µM,> 100 µM,> 100 µM,> 100 µM,> 100 µM,> 100 µM,> 100 µM,> 100 µM,> 100 µM,> 100 µM,> 100 µM,–,–,–
O=C1CCCc2cc3c(cc21)CC1(C3)Cc2cc3c(cc2C1)C(=O)CCC3,> 42.2 µM,11.8 µM,> 63.2 µM,> 43.1 µM,35.8 µM,15.6 µM,–,> 62.6 µM,30.9 µM,7.85 µM,10.4 µM,31.7 µM,> 100 µM,> 56 µM,–,19 µM,> 100 µM
CCOC(=O)CCCOc1cc(-c2ccccc2F)nc2cc3c(cc12)OCO3,–,> 100 µM,> 100 µM,98 µM,–,> 100 µM,> 100 µM,> 100 µM,> 100 µM,> 100 µM,32.1 µM,> 100 µM,–,–,> 100 µM,> 100 µM,–
CN1C(CC(O)c2ccccc2)CCCC1CC(O)(c1ccccc1)c1ccccc1 (stereo unspecified),94.8 µM,34.9 µM,27.6 µM,54.9 µM,52.2 µM,–,56.6 µM,33.8 µM,40.7 µM,36.6 µM,37.8 µM,35.8 µM,36.3 µM,30.8 µM,–,45.6 µM,–
O=C(Cn1c2c(c3ccccc31)CCCC2)N1CCOCC1,> 100 µM,> 100 µM,> 100 µM,> 100 µM,> 100 µM,> 100 µM,–,> 100 µM,> 100 µM,–,> 100 µM,> 100 µM,> 100 µM,> 100 µM,> 100 µM,–,> 100 µM
